Legend:
human type I collagen = target: T1, human type I collagen (Homo sapiens, UniProt P02452+P08123); experiment: Collagen binding assay, dried human collagen in microtiter plate; details: 37° C., pH 7.4
T1 construct: purchased Advanced Biomatrix 5007-A
Protocol: 10 ml of a solution of 3 mg/ml of human type I collagen (VitroCol solution, Advanced Biomatrix, cat#5007-A) is dialyzed against 10 mM Phosphate (NaH2PO4), pH 4.2 at 4° C. with three changes of the dialysis buffer. The protein concentration is determined by liquid chromatography determination of hydroxyproline (P. Hutson, J. Chromatogr. B, 791 (2003) 427-430).
Ice-cold 1×PBS pH 10.8 is added to the collagen solution for a final collagen concentration of 10 μM, pH 7.4. Collagen solutions are gelled and dried down in the wells of a 96 well microtiter plate (Corning Polystyrene Flat Bottom, cat#3641). […] The final well content of gelled collagen is measured by determination of hydroxyproline and is around 180 μg/ml.
a serial dilution of 0.2 μM-30 μM of the peptide chelate is prepared in PBS, pH 7.4 ([…], of solution for each concentration). […] The concentration of free, unbound compound in the sample supernatants and the concentration of compound in the reserved (total) sample are determined by ICP-MS (Agilent 7500, gadolinium concentration). The concentration of compound bound to collagen is determined as [bound]=[total]−[unbound].
The binding of compounds to human, rat and dog collagen (5 μM) was measured over the concentration range 0.2-5 μM of Comp ID Nos.: 1-4. […]

myocardium = type: in vivo; details: Compound ID No. 1 7.5 μmol/kg (canine) vs EP-3600 12.3 μmol/kg (pig)
Protocol: To mimic severe ischemia, a canine model was used in which an inflatable variable vascular occluder was placed around the left anterior descending coronary artery (LAD) to allow occlusion and reperfusion. Imaging was performed on a 3T clinical scanner 4 days after implantation of the occluder. The conventional saturation recovery pulse sequence for stress perfusion imaging was compared with a segmented inversion method. The purpose of the segmented inversion method was to leverage the steady-state properties of Compound ID No. 1. This segmented inversion recovery pulse sequence provides greater T1 weighting, higher spatial resolution, and greater myocardial tissue contrast. Additionally, since imaging is delayed, the entire heart can be imaged. After baseline […] scanning, the balloon was inflated. […]
To assess relative perfusion, labeled microspheres were administered at 3 timepoints in the study. […] At autopsy under ultraviolet light, the hypo-perfused myocardium was differentiated from normal myocardium due to the lack of fluorescence in the hypo-perfused tissue. Based on the fluorescence, a sample of the ischemic territory and a sample of the remote myocardium were taken for ex vivo analysis. These tissue samples were weighed, digested in nitric acid, and analyzed for the elements La, Au, Lu (the three microsphere injections) and gadolinium (Compound ID No. 1) using ICP-MS. […]

liver fibrosis = experiment: Detection of liver fibrosis by MRI, rat bile duct ligation model; type: in vivo, male CD rats; details: 10 μmol/kg i.v., 30 minutes, 1.5 tesla
Description: Liver fibrosis was induced in male CD rats (n=8) by ligation of the common bile duct (Charles River Labs, Wilmington, Mass.). Control animals (n=12) underwent a control procedure. Rats were imaged 19 days following ligation. Rats were imaged on a 1.5-tesla clinical MRI scanner (Siemens Healthcare, Malvern, Pa.) using a home-built, transmit-receive solenoid coil. Animals were anesthetized with 1-2% isoflurane and respiration rate was monitored with a small animal physiological monitoring system (SA Instruments, Inc., Stony Brook, N.Y.). Respiratory-gated, 3D Inversion Recovery (IR) Fast Low Angle Shot (FLASH) images were acquired prior to and 30 minutes following intravenous administration of 10 μmol/kg COMPOUND ID NO. 1. A non-selective inversion pulse was used and images were acquired with inversion recovery times of 50, 100, 200, 250, 300, 400 and 1000 ms. Image acquisition parameters consisted of an echo time of TE=2.44 ms, field-of-view FOV=120×93 mm, matrix=192×150 (0.625 mm in-plane resolution), slice thickness=0.6 mm, and 36 image slices. […] Following imaging, animals were sacrificed and liver tissue was subjected to pathologic scoring of fibrosis and analyzed for hydroxyproline content. […]
Liver fibrosis was detected by MRI by measuring the change in liver R1 after injection of COMPOUND ID NO. […]

T1 sequence (P02452 162-1218 limits assumed): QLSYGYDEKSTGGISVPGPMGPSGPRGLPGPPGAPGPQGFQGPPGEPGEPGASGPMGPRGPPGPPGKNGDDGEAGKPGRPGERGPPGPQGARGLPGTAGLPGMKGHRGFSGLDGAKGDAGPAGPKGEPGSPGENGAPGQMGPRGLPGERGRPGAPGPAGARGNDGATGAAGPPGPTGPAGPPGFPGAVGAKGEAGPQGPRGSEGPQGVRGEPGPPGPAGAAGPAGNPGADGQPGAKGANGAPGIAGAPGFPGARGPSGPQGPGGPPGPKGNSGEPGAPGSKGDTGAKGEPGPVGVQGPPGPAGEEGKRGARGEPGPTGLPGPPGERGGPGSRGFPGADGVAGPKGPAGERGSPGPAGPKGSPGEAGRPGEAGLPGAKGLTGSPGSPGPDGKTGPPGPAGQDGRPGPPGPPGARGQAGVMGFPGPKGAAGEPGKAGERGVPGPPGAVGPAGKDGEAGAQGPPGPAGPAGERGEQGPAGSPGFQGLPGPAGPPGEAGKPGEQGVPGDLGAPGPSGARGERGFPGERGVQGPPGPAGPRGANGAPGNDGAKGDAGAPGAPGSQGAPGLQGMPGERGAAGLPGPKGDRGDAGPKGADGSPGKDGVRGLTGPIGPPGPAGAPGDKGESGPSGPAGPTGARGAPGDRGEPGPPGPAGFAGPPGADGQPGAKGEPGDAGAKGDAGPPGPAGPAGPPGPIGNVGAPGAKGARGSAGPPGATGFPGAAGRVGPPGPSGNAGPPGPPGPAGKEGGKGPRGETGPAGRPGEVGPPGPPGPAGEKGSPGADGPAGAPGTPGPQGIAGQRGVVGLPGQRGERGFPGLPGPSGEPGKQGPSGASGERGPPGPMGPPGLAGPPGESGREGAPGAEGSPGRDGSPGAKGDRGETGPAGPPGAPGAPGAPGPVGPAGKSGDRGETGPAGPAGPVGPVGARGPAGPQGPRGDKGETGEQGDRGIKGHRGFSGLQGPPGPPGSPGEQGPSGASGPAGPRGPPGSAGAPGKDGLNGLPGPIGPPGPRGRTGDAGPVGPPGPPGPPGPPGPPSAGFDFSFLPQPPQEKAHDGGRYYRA
T1 sequence (P08123 80-1119 limits assumed): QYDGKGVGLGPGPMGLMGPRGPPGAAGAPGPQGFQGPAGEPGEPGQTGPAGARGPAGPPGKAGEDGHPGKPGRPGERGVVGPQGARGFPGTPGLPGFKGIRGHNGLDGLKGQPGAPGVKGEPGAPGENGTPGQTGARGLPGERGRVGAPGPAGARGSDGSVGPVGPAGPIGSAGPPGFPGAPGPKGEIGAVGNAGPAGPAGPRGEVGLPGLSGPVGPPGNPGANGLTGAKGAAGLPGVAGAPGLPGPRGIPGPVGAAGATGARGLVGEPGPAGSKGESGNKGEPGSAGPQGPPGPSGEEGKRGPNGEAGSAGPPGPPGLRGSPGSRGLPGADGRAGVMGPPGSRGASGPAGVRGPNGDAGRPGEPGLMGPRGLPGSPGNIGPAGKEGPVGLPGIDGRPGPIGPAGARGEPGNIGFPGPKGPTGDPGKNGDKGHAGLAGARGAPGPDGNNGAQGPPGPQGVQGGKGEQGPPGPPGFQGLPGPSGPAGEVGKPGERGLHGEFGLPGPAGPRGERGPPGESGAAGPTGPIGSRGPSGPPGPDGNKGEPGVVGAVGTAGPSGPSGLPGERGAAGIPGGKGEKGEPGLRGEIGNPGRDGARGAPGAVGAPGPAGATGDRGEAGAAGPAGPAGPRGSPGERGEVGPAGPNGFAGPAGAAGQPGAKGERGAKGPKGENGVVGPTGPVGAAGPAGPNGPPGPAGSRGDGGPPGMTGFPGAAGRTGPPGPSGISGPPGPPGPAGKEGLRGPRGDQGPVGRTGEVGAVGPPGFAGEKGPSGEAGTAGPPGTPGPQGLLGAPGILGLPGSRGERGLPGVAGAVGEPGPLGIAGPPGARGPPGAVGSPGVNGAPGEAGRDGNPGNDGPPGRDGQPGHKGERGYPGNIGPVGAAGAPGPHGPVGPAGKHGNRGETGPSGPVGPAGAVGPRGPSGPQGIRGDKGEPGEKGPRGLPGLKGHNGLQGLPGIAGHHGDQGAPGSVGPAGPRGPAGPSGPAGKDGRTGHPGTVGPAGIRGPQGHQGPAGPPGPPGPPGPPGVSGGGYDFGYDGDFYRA

With `CC(C)C[C@H](NC(=O)[C@@H]1CSSC[C@H](NC(=O)[C@H](Cc2c[nH]cn2)NC(=O)[C@H](Cc2c[nH]c3ccccc23)NC(=O)[C@H](CCCCNC(=O)CC[C@H](C(=O)O)N2CCN(CC(=O)O)CCN(CC(=O)O)CCN(CC(=O)O)CC2)NC(=O)CNC(=O)CC[C@H](C(=O)O)N2CCN(CC(=O)O)CCN(CC(=O)O)CCN(CC(=O)O)CC2)C(=O)N[C@@H]([C@@H](C)O)C(=O)N[C@@H]([C@@H](C)O)C(=O)N[C@@H](CCCCNC(=O)CC[C@H](C(=O)O)N2CCN(CC(=O)O)CCN(CC(=O)O)CCN(CC(=O)O)CC2)C(=O)N[C@@H](Cc2ccccc2)C(=O)N2CCC[C@H]2C(=O)N[C@@H](Cc2c[nH]cn2)C(=O)N[C@@H](Cc2c[nH]cn2)C(=O)N[C@@H](Cc2ccc(O)cc2)C(=O)N1)C(=O)N[C@@H](Cc1ccc(O)cc1)C(=O)N[C@@H](Cc1ccc(-c2ccccc2)cc1)C(N)=O` [Compound ID No. 1] the Kd (human type I collagen) was 3.8 µM, the “ΔCNR relative to EP-3600 (fold higher)” value (myocardium) was 3 to 4 fold and the “ΔR1 (change in liver R1 after injection)” value (liver fibrosis; BDL animals, 19 days after ligation) was 0.49 ± 0.22 s⁻¹. The “ΔR1 (change in liver R1 after injection)” value (liver fibrosis; sham animals) was 0.15 ± 0.14 s⁻¹.

From patent US20180185520A1, “COLLAGEN IMAGING COMPOSTIONS” (Collagen Medical, LLC, priority 2015, published 2018)
